According to US8853171B2, “1′-substituted carba-nucleoside analogs for antiviral treatment” (Gilead Sciences, Inc., priority 2008, dated 2014):

Tests used:
HCV Δ21 NS5b polymerase = target: T1, HCV Δ21 NS5b polymerase (Hepatitis C virus genotype 1b, UniProt Q9WMX2); assay: HCV IC50 determination: NS5b polymerase assay; format: biochemical
T1 construct: 75 nM HCV Δ21 NS5b polymerase
Experimental: Assay Protocol: NS5b polymerase assay (40 μL) was assembled by adding 28 μL polymerase mixture (final concentration: 50 mM Tris-HCl at pH 7.5, 10 mM KCL, 5 mM MgCl2, 1 mM DTT, 10 mM EDTA, 4 ng/μL of RNA template, and 75 nM HCV Δ21 NS5b polymerase) to assay plates followed by 4 μL of compound dilution. The polymerase and compound were pre-incubated at 35° C. for 10 minute before the addition of 8 μL of nucleotide substrate mixture (33P-α-labeled competing nucleotide at KM and 0.5 mM of the remaining three nucleotides). The assay plates were covered and incubated at 35° C. for 90 mM. Reactions were then filtered through 96-well DEAE-81 filter plates via vacuum. The filter plates were then washed under vacuum with multiple volumes of 0.125 M NaHPO4, water, and ethanol to remove unincorporated label. Plates were then counted on TopCount to assess the level of product synthesis over background controls. The IC50 value is determined using Prism fitting program.

HCV replicon cells = assay: HCV EC50 determination: replicon luciferase assay; format: cell-based; conditions: Hepatitis C virus, 72 h, 3 days incubation, luciferase activity
Experimental: Replicon cells were seeded in 96-well plates at a density of 8×10^3 cells per well in 100 μL of culture medium, excluding Geneticin. Compound was serially diluted in 100% DMSO and then added to the cells at a 1:200 dilution, achieving a final concentration of 0.5% DMSO and a total volume of 200 μL. Plates were incubated at 37° C. for 3 days, after which culture medium was removed and cells were lysed in lysis buffer provided by Promega's luciferase assay system. Following the manufacturer's instruction, 100 μL of luciferase substrate was added to the lysed cells and luciferase activity was measured in a TopCount luminometer.

| SMILES | IC50 (HCV Δ21 NS5b polymerase) | EC50 (HCV replicon cells) |
| --- | --- | --- |
| C[C@@]1(O)[C@H](O)[C@@H](COP(=O)(O)O)O[C@@]1(C#N)c1ccc2c(N)ncnn12 [Compound 17] | < 1000 nM | – |
| N#C[C@@]1(c2ccc3c(N)ncnn23)O[C@H](CO)[C@@H](O)[C@H]1O [Compound 13] | – | 1 to 10 µM |
| CO[C@@]1(c2ccc3c(N)ncnn23)O[C@H](CO)[C@@H](O)[C@H]1O [Compound 12] | – | 1 to 10 µM |
| CC(C)(C)C(=O)SCCOP(=O)(OCCSC(=O)C(C)(C)C)OC[C@H]1O[C@@](C#N)(c2ccc3c(N)ncnn23)[C@](C)(O)[C@@H]1O [Compound 6] | – | < 1 µM |
| C[C@@]1(O)[C@H](O)[C@@H](CO)O[C@@]1(C#N)c1ccc2c(N)ncnn12 [Compound 5] | – | 10 to 100 µM |
| CO[C@@]1(c2ccc3c(N)ncnn23)O[C@H](CO)[C@@H](O)[C@@]1(C)O [Compound 3] | – | 10 to 100 µM |
| C[C@@]1(O)[C@H](O)[C@@H](CO)OC1(O)c1ccc2c(N)ncnn12 (some centres unmarked) [Compound 2] | – | 10 to 100 µM |
| C[C@@]1(c2ccc3c(N)ncnn23)O[C@H](CO)[C@@H](O)[C@@]1(C)O [Compound 4] | – | 10 to 100 µM |
